Here are results for one compound from US6872805B2 (Bristol-Myers Squibb Company, priority 2000, dated 2005).

The target of one data set is NS3/4A BMS strain (Hepatitis C virus genotype 1a, UniProt P27958, C1454S/C1711G). In words: Recombinant HCV NS3/4A protease complex FRET peptide assay, BMS strain. It counts as biochemical, HCV genotype 1a. As to conditions: enzyme assay. An excerpt: The purpose of this in vitro assay was to measure the inhibition of HCV NS3 protease complexes, derived from the BMS, H77C or J416S strains, as described below, by compounds of the present invention. This assay provides an indication of how effective compounds of the present invention would be in inhibiting HCV […] proteolytic activity.
NS3/4A BMS strain, sequence (P27958 1027-1711, stated change not applied): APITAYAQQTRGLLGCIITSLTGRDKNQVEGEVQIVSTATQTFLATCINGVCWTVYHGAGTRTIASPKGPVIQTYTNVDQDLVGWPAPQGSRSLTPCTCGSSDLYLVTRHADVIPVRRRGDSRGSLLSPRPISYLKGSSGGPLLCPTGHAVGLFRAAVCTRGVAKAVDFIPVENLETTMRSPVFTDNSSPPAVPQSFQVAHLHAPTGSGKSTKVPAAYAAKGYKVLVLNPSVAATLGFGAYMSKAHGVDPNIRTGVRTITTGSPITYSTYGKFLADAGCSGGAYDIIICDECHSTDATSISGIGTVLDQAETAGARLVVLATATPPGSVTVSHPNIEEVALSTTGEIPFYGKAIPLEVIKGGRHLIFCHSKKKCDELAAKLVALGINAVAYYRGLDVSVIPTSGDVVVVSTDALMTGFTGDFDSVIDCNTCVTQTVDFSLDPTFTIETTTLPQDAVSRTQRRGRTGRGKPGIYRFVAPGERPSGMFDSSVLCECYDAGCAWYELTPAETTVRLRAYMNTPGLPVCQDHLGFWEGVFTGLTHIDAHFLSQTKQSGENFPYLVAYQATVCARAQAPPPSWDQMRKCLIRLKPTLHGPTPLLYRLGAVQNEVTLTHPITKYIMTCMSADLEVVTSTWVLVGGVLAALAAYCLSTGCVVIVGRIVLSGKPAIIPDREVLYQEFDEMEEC
NS3/4A BMS strain, sequence (P27958 1027-1711, stated change not applied): as above
Serum from an HCV-infected patient was obtained from Dr. T. Wright, San Francisco Hospital. An engineered full-length cDNA template of the HCV genome (BMS strain) was constructed from DNA fragments obtained by reverse transcription-PCR (RT-PCR) of serum RNA and using primers selected on the basis of homology between other genotype 1a strains. From the determination of the entire genome sequence, a genotype 1a was assigned to the HCV isolate according to the classification of Simmonds et al. (See P Simmonds, K A Rose, S Graham, S W Chan, F McOmish, B C Dow, E A Follett, P L Yap and H Marsden, J. Clin. Microbiol., 31(6), 1493-1503 (1993)). […] The infectious clones, H77C (1a genotype) and J4L6S (1b genotype) were obtained from R. Purcell (NIH) and the sequences are published in genebank (AAB67036, see Yanagi, M., Purcell, R. H., Emerson, S. U. and Bukh, J. Proc. Natl. Acad. Sci. U.S.A. 94(16),8738-8743 (1997); AF054247, see Yanagi, M., St Claire, M., Shapiro, M., Emerson, S. U., Purcell, R. H. and Bukh, J, Virology 244 (1), 161-172. (1998)). […]

The next data set addresses T1, human leukocyte elastase (Homo sapiens, UniProt P08246).
T1 sequence (P08246 30-267): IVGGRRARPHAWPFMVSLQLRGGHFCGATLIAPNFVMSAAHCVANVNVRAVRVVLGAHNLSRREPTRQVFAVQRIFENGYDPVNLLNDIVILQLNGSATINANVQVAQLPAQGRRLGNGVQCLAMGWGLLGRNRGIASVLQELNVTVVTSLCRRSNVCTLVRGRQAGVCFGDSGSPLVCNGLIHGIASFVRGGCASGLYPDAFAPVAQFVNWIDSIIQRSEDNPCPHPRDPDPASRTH
In words: Specificity assay, human leukocyte elastase. It counts as biochemical. As to conditions: read-out: HLE. The protocol: The specificities of compounds of the present invention were determined against a variety of serine proteases: human leukocyte elastase, porcine pancreatic elastase and bovine pancreatic α-chymotrypsin and one cysteine protease: human liver cathepsin B. In all cases a 96-well plate format protocol using calorimetric […] (pNA) substrate specific for each enzyme was used as described previously (Patent WO 00/09543) with some modifications.
Each assay included a 1 h enzyme-inhibitor pre-incubation at RT followed by addition of substrate and hydrolysis to ˜30% conversion as measured on a Spectramax Pro microplate reader. Compound concentrations varied from 100 to 0.4 μM depending on their potency.
The final conditions and protocol for each assay was as reported previously (Patent WO 00/09543) with the inclusion of an additional assay: • 50 mM Tris-HCl pH 8, 0.5M Na2SO4, 50 mM NaCl, 0.1 mM EDTA, 3% DMSO, 0.01% Tween-20 with 133 μM succ-AAA-PNA and 20 nM Elastase
The percentage of inhibition was calculated using the formula: [1−((UVinh−UVblank)/(UVctl−UVblank))]×100

Data set [1] can be described thus: In vivo rat PK studies (systemic and liver exposure). The arrangement: species or system male Sprague Dawley rats. As to conditions: dosed orally or intravenously. The protocol:
All animal experimentation was conducted in accordance with USDA guidelines under the Animal Welfare Act. To assess the systemic and liver exposure, representative compounds were orally (gastric intubation) or intravenously (bolus or infusion) administered to male Sprague Dawley rats bearing indwelling jugular vein cannulae. At pre-determined times after dosing, serial blood samples were taken from the implanted cannulae. Plasma was separated from EDTA-treated blood by centrifugation and stored at −20° C. until analysis. The liver was removed from rats after carbon dioxide asphyxiation, rinsed with saline and blotted dry. For analysis, a 2 g portion of the outer part of one lobe was minced and homogenized with 4 ml of 80% acetonitrile/HBSS buffer. After centrifugation, the supernatant was kept at −20° C. until analysis. Quantitation of represenatative compounds in plasma and liver homogenate samples was performed by a specific LC/MS/MS method optimized for each compound.

As to `C=CC1C[C@]1(NC(=O)[C@@H]1C[C@@H](Oc2cc(-c3ccccc3)nc3cc(OC)ccc23)CN1C(=O)C(NC(=O)OC(C)(C)C)C(C)(C)C)C(=O)NS(=O)(=O)c1ccc(NC(C)=O)cc1` (stereo partly drawn) [Compound 58], the IC50 at NS3/4A BMS strain was 0.017 µM; at human leukocyte elastase, 35 µM. Besides, in data set [1], the viral target exposure entry is listed as “viral target exposure was achieved”.
